According to PubChem BioAssay AID1671275:

Biological target: Ephrin type-B receptor 3 (Homo sapiens) (UniProt P54753)
Assay: EPHB3 kinase inhibitors, dose response, biochemical, Z'-LYTE, FRET, protease-coupled, direct format (AID 1671275)
Details: Z'-LYTE FRET kinase activity assay, recombinant EPHB3

Chain of Ephrin type-B receptor 3 (Homo sapiens) (P54753 whole entry, looked up): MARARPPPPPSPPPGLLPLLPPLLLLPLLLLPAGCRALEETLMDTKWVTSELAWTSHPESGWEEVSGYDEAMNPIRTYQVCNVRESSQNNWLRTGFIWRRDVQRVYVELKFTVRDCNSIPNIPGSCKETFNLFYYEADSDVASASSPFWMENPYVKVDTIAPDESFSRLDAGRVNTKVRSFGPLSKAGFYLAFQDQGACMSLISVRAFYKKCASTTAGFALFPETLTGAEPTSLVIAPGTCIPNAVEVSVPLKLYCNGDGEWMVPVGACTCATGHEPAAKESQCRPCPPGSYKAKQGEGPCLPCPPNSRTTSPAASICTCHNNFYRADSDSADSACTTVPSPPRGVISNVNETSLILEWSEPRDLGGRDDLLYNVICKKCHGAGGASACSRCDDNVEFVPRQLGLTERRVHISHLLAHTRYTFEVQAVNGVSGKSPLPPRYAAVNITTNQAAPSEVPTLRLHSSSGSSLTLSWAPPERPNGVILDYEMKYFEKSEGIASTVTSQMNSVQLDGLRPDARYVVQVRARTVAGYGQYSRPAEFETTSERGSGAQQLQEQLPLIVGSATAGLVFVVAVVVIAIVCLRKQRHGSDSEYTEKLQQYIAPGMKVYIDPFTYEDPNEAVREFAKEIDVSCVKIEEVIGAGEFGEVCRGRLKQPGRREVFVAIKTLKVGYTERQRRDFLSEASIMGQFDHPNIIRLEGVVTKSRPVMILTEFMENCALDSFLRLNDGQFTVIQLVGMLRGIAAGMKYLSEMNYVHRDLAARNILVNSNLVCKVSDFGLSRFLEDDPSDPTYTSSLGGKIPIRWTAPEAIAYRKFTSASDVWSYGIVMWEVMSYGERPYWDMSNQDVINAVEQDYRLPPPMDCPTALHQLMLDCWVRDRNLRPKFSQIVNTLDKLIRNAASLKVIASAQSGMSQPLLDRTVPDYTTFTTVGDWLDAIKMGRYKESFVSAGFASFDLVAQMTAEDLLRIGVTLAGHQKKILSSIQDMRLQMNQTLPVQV

IC50: 763 nM
Structure (SMILES): CC(C)(C)n1nc(-c2ccc(Cl)cc2)c2c(N)ncnc21
